# How the values were obtained:
# [1] = system: HDQ-P1; conditions: 72 h
# In short: (§1)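 Breast cancer cell lines in 20 µl suspension were added to 384-well plates already holding compound at 5 concentrations, spaced in 10-fold steps across a compound-specific 10,000-fold range, and incubated for 72 h. CellTox Green fluorescence (485/520 nm) was read first to measure cell death, followed by CellTiter-Glo luminescence for viability after 10 min at room temperature. Each plate was normalised to 0.1 % DMSO and a positive kill control. EC50 values came from dose-response curve fits and were censored at the top concentration.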
# [2] = system: MDA-MB-468; conditions: 72 h
# In short: as §1
# [3] = system: MDA-MB-453; conditions: 72 h
# In short: as §1
# [4] = system: HCC1143; conditions: 72 h
# In short: as §1
# [5] = system: DU-4475; conditions: 72 h
# In short: as §1
# [6] = system: SK-BR-3; conditions: 72 h
# In short: as §1
# [7] = system: CAL-148; conditions: 72 h
# In short: as §1
# [8] = system: MDA-MB-436; conditions: 72 h
# In short: as §1
# [9] = system: MDA-MB-231; conditions: 72 h
# In short: as §1
# [10] = system: HCC1599; conditions: 72 h
# In short: as §1
# [11] = system: Hs578T; conditions: 72 h
# In short: as §1
# [12] = system: CAL-51; conditions: 72 h
# In short: as §1
# [13] = system: CAL-120; conditions: 72 h
# In short: as §1
# [14] = system: MCF-10A; conditions: 72 h
# In short: as §1
# [15] = system: CAL-85-1; conditions: 72 h
# In short: as §1
# [16] = system: BT-549; conditions: 72 h
# In short: as §1
# [17] = system: BT-474; conditions: 72 h
# In short: as §1
# [18] = system: MDA-MB-468; conditions: 72 h; remark: listed apart in the source
# Method: (§2)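 Drug sensitivity and resistance testing (DSRT) of breast cancer cell lines in 384-well plates, 5 concentrations in 10-fold dilutions over a compound-specific 10,000-fold range. After 72 h, cytotoxicity was read by CellTox Green fluorescence and viability by CellTiter-Glo luminescence (multiplexed), normalised to DMSO and benzethonium chloride controls. EC50 is the inflection point of the fitted dose-response curve (bottom asymptote free, so it can be relative for partial curves) and is censored at the highest tested concentration. Rows with DSS 0 (no meaningful response) were excluded.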
# [19] = system: CAL-148; conditions: 72 h; remark: listed apart in the source
# Method: as §2
# [20] = system: CAL-51; conditions: 72 h; remark: listed apart in the source
# Method: as §2
# [21] = system: CAL-85-1; conditions: 72 h; remark: listed apart in the source
# Method: as §2
# [22] = system: HDQ-P1; conditions: 72 h; remark: listed apart in the source
# In short: (§3)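 After 72 h on 384-well plates pre-loaded with compound in 5 µl medium, breast cancer cell lines seeded in 20 µl were assayed for viability with 2.5 µl CellTiter-Blue at 37 °C for 2 h, read at 560/590 nm. Each plate was quality-checked by Z'-factor and normalised to vehicle and a positive kill control. EC50 comes from the fitted percent-inhibition dose-response curve, censored at the top concentration, and rows scoring zero for drug sensitivity were left out.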
# [23] = system: MDA-MB-453; conditions: 72 h; remark: listed apart in the source
# In short: as §3
# [24] = system: DU-4475; conditions: 72 h; remark: listed apart in the source
# In short: as §3
# [25] = system: CAL-85-1; conditions: 72 h; remark: listed apart in the source
# In short: as §3
# [26] = system: MDA-MB-468; test: drug sensitivity score (DSS), CellTiter-Blue viability (DSS (AUC-based score)); higher = stronger viability inhibition; extreme values may be limits of the assay; conditions: incubation time: 72 h
# Method: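 DSRT with the CellTiter-Blue (resazurin reduction) viability readout, fluorescence 560/590 nm, 72 h incubation. Plates were normalised to DMSO and benzethonium chloride controls. DSS is computed from the area under the fitted dose-response curve (5 or 9 concentrations).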
# [27] = system: MDA-MB-468; conditions: 72 h; remark: listed apart in the source
# In short: as §3
# [28] = system: HCC1143; conditions: 72 h; remark: listed apart in the source
# In short: as §3
# [29] = system: MFM-223; conditions: 72 h
# In short: as §3
# [30] = system: MDA-MB-231; conditions: 72 h; remark: listed apart in the source
# In short: as §3
# [31] = system: HCC1599; conditions: 72 h; remark: listed apart in the source
# In short: as §3
# [32] = system: Hs578T; conditions: 72 h; remark: listed apart in the source
# In short: as §3
# [33] = system: BT-474; conditions: 72 h; remark: listed apart in the source
# In short: as §3
# [34] = system: HCC1937; conditions: 72 h
# In short: as §1
# [35] = system: MFM-223; conditions: 72 h; remark: listed apart in the source
# In short: as §1
# [36] = system: CAL-120; conditions: 72 h; remark: listed apart in the source
# Method: as §2
Structure (SMILES),"EC50, CellTiter-Glo [2]","EC50, CellTiter-Glo [3]","EC50, CellTiter-Glo [4]","EC50, CellTiter-Glo [6]","EC50, CellTiter-Glo [8]","EC50, CellTiter-Glo [9]","EC50, CellTiter-Glo [10]","EC50, CellTiter-Glo [16]","EC50, CellTiter-Glo [17]","EC50, CellTiter-Blue viability [23]","EC50, CellTiter-Blue viability [27]","EC50, CellTiter-Blue viability [28]","EC50, CellTiter-Blue viability [30]","EC50, CellTiter-Blue viability [31]","EC50, CellTiter-Blue viability [33]","EC50, CellTiter-Glo [34]","EC50, CellTiter-Glo [1]","EC50, CellTiter-Glo [5]","EC50, CellTiter-Glo [7]","EC50, CellTiter-Glo [11]","EC50, CellTiter-Glo [12]","EC50, CellTiter-Glo [13]","EC50, CellTiter-Glo [14]","EC50, CellTiter-Glo [15]","EC50, CellTox Green [18]","EC50, CellTox Green [19]","EC50, CellTox Green [20]","EC50, CellTox Green [21]","EC50, CellTiter-Blue viability [22]","EC50, CellTiter-Blue viability [24]","EC50, CellTiter-Blue viability [25]",drug sensitivity score [26],"EC50, CellTiter-Blue viability [29]","EC50, CellTiter-Blue viability [32]","EC50, CellTiter-Glo [35]","EC50, CellTox Green [36]"
COc1cccc2c1C(=O)c1c(O)c3c(c(O)c1C2=O)C[C@@](O)(C(=O)CO)C[C@@H]3O[C@H]1C[C@H](N)[C@H](O)[C@H](C)O1 [Doxorubicin],139 nM,607 nM,942 nM,263 nM,449 nM,311 nM,597 nM,154 nM,167 nM,409 nM,150 nM,132 nM,187 nM,83.5 nM,522 nM,,465 nM,177 nM,187 nM,463 nM,41.5 nM,872 nM,856 nM,547 nM,100 nM,92.4 nM,68 nM,440 nM,259 nM,71.8 nM,279 nM,9.27,558 nM,147 nM,,
Cc1ccc(F)c(NC(=O)Nc2ccc(-c3cccc4[nH]nc(N)c34)cc2)c1 [Linifanib],,,,,,,,,,,,,,,,,,,,,411 nM,,,,,,,,,,,0,,,,
S=c1[nH]cnc2nc[nH]c12 [Mercaptopurine],,,,,,906 nM,3820 nM,,3920 nM,,387 nM,,,,,833 nM,569 nM,1820 nM,,985 nM,,4710 nM,,4410 nM,,,,,,,,5.53,,,,
Clc1ccc(C(c2ccccc2Cl)C(Cl)Cl)cc1 (centres undefined) [Mitotane],,,,,,,,,,,,,,,,,,,,,,,,,,,,,,,,0,,,,
CCN1CCN(c2ccc(Nc3cc(N(C)C(=O)Nc4c(Cl)c(OC)cc(OC)c4Cl)ncn3)cc2)CC1 [NVP-BGJ398],,,,,,,,,,,,,,,,,,,,> 1000 nM,,252 nM,,,,,,,,,,,,,50.5 nM,> 1000 nM

# Now from value to compound, other results behind:
"EC50, CellTiter-Glo [2]","EC50, CellTiter-Glo [3]","EC50, CellTiter-Glo [4]","EC50, CellTiter-Glo [6]","EC50, CellTiter-Glo [8]","EC50, CellTiter-Glo [9]","EC50, CellTiter-Glo [10]","EC50, CellTiter-Glo [16]","EC50, CellTiter-Glo [17]","EC50, CellTiter-Blue viability [23]","EC50, CellTiter-Blue viability [27]","EC50, CellTiter-Blue viability [28]","EC50, CellTiter-Blue viability [30]","EC50, CellTiter-Blue viability [31]","EC50, CellTiter-Blue viability [33]","EC50, CellTiter-Glo [34]",Structure (SMILES),"EC50, CellTiter-Glo [1]","EC50, CellTiter-Glo [5]","EC50, CellTiter-Glo [7]","EC50, CellTiter-Glo [11]","EC50, CellTiter-Glo [12]","EC50, CellTiter-Glo [13]","EC50, CellTiter-Glo [14]","EC50, CellTiter-Glo [15]","EC50, CellTox Green [18]","EC50, CellTox Green [19]","EC50, CellTox Green [20]","EC50, CellTox Green [21]","EC50, CellTiter-Blue viability [22]","EC50, CellTiter-Blue viability [24]","EC50, CellTiter-Blue viability [25]",drug sensitivity score [26],"EC50, CellTiter-Blue viability [29]","EC50, CellTiter-Blue viability [32]","EC50, CellTiter-Glo [35]","EC50, CellTox Green [36]"
,,,,,,,,,11.1 nM,76.2 nM,68.7 nM,502 nM,2050 nM,1160 nM,,COc1cc(Nc2ncc3c(n2)-c2ccc(Cl)cc2C(c2c(F)cccc2OC)=NC3)ccc1C(=O)O [MLN8237],,,,,,,,,,,,,51 nM,57.5 nM,29.6 nM,15.8,388 nM,41.8 nM,,
4990 nM,2920 nM,1880 nM,594 nM,8290 nM,8210 nM,,2590 nM,2920 nM,460 nM,1960 nM,1150 nM,1670 nM,1210 nM,740 nM,8710 nM,COc1cccc2cc(-c3nc([C@H]4CC[C@H](C(=O)O)CC4)n4ncnc(N)c34)[nH]c12 [OSI-027],938 nM,1480 nM,7160 nM,6720 nM,2220 nM,3850 nM,4810 nM,3800 nM,,,,> 10000 nM,255 nM,4630 nM,1180 nM,6.33,275 nM,1280 nM,3170 nM,

# Reference: the supplement of paper PMC4862054
